Source: ChEMBL document CHEMBL3232841, “New aminobenzenesulfonamide-thiourea conjugates: synthesis and carbonic anhydrase inhibition and docking studies” (Eur J Med Chem, 2014)

Biological target: Carbonic anhydrase 2 (Bos taurus, UniProt P00921)
Assay: Inhibition of bovine erythrocyte carbonic anhydrase 2 using p-nitrophenyl acetate as substrate preincubated for 10 mins before substrate addition measured after 30 mins by spectrophotometric analysis

Chain of Carbonic anhydrase 2 (P00921 whole entry): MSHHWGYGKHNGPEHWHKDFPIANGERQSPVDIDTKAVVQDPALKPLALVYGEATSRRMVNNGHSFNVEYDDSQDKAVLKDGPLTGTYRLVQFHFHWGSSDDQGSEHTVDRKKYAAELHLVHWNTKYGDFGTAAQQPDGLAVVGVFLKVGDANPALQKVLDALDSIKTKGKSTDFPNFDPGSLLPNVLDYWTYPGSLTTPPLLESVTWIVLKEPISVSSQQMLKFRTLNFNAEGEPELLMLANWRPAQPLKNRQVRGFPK

Row | SMILES | IC50 [µM]
1 | NS(=O)(=O)c1cccc(NC(=S)NC(=O)c2ccco2)c1 | 9.76
2 | NS(=O)(=O)c1cccc(NC(=S)NC(=O)c2cccc([N+](=O)[O-])c2)c1 | 0.49
3 | NS(=O)(=O)c1cccc(NC(=S)NC(=O)c2cc3ccccc3oc2=O)c1 | 13.4
4 | NS(=O)(=O)c1cccc(NC(=S)NC(=O)C23CC4CC(CC(C4)C2)C3)c1 | 5.58
5 | NS(=O)(=O)c1cccc(NC(=S)NC(=O)c2ccc(Cl)cc2Cl)c1 | 17.1
6 | NS(=O)(=O)c1cccc(NC(=S)NC(=O)c2cc([N+](=O)[O-])cc([N+](=O)[O-])c2)c1 | 14.2
7 | NS(=O)(=O)c1cccc(NC(=S)NC(=O)c2ccc(Cl)cc2)c1 | 5.64
8 | NS(=O)(=O)c1cccc(NC(=S)NC(=O)c2ccccc2Cl)c1 | 13.5
9 | CC(C)(C)C(=O)NC(=S)Nc1cccc(S(N)(=O)=O)c1 | 1.28
10 | NS(=O)(=O)c1ccc(NC(=S)NC(=O)c2cc3ccccc3oc2=O)cc1 | 11.3
11 | NS(=O)(=O)c1ccc(NC(=S)NC(=O)c2cccs2)cc1 | 0.011
12 | NS(=O)(=O)c1cccc(NC(=S)NC(=O)c2cccs2)c1 | 0.052
13 | NS(=O)(=O)c1cccc(NC(=S)NC(=O)c2cccc(Cl)c2)c1 | 0.22
